According to US20240025966A1, “CD47 BLOCKADE AND COMBINATION THERAPIES THEREOF FOR REDUCTION OF VASCULAR INFLAMMATION” (The Board of Trustees of the Leland Stanford Junior …, priority 2020, published 2024):

Tests used:
[1] = test system: NFκB1 p50; assay: NFκB1 p50 nuclear translocation by immunofluorescence and Western blot; assay type: cell-based, mouse; settings: smooth muscle cells, 10 μM atorvastatin + 100 μM mevalonate
Description: Mouse smooth muscle cells were seeded in Millicell EZ Slides 1 (Sigma-Aldrich, Catalogue #PEZGS0416 or Catalogue #PEZGS0816). […] Following stimulation/treatment, cells were rinsed with PBS and fixed with 4% phosphate-buffered paraformaldehyde. For CD47 staining (BioXCell, MIAP410, 25 μg/ml), vector mouse-on-mouse fluorescein Immunodetection Kit (Thermo Scientific, Catalogue #NC9801950) was used according to the manufacturer's instructions. For NFκB1 p105/p50 staining, cells were blocked with 5% goat serum (Sigma-Aldrich, Catalogue #G9023) for 30 minutes, then incubated with NFκB1 p105/p50 (Cell Signaling Technology, Catalogue #13586S, D4P4D, 1:200) overnight at 4° C. […] Images were captured using a Leica DMi8 microscope (equipped with a Leica DMC4500 colour camera and a Leica K5 camera for fluorescence imaging).
Total protein was isolated from mouse smooth muscle cells using a subcellular protein fractionation kit (Thermo Scientific, Catalogue #78840) supplemented with Halt Protease and Phosphatase Inhibitor Cocktail (Thermo Scientific, Catalogue #78442). The protein concentration in each sample was measured using Pierce BCA Protein Assay Kit (Thermo Scientific, Catalogue #23225). […] Membranes were then scanned with an iBright 1500 Imaging System (Thermo Scientific) for quantitative analysis using Image J/FIJI software (Version: 2.0.0/1.52p, NIH).

[2] = test system: CD47; assay: Cd47 expression by quantitative PCR, flow cytometry and immunofluorescence; assay type: cell-based, mouse; settings: smooth muscle cells, 50 ng/ml TNF-α + 10 μM atorvastatin, 48 hours; compared to macrophages
Description: RNA was extracted from cell lysates using the miRNeasy Mini Kit (Qiagen, Catalogue #217004) according to the manufacturer's protocol or the TRIzol method (Invitrogen, Catalogue #15596026). Then, RNA was quantified with a NanoDrop One (Thermo Scientific). RNA was reverse transcribed using the High-Capacity RNA-to-cDNA Synthesis Kit (Applied 1 Biosystems, Catalogue #4387406). Quantitative PCR of the cDNA samples was performed on a ViiA7 Real-Time PCR system or a QuantStudio 5 (both Applied Biosystems). Gene expression levels were measured using TaqMan Universal Master Mix II (Applied Biosystems, Catalogue #4440047, Lot #00762728) and commercially available TaqMan primers (Applied Biosystems). Data were quantified with the 2^−ΔΔCt method and normalized to Gapdh as an internal control. […]
Cells were washed, harvested, and stained with an anti-CD47 antibody (BD Life Sciences, Catalogue #561890, FITC, MIAP301, 0.5 mg/ml) or an isotype control antibody (BD Life Sciences, Catalogue #553929, FITC, R35-95, 0.5 mg/ml) after Fc receptor blockade (BD Biosciences, Catalogue #553142, anti-mouse CD16/CD32). Expression was quantified using the LSRII (BD Life Sciences, Stanford Shared FACS Facility) and analysed by FlowJo10.7.1 (BD Life Sciences). […]

[3] = test system: CD47 promoter; assay: CD47 promoter luciferase reporter assay; assay type: cell-based, mouse; settings: smooth muscle cells, 50 ng/ml TNF-α + 10 μM atorvastatin, 24 hours
Description: The luciferase reporter assay was performed as previously described (Kojima et al., Nature 536, 86-90, 2016). CD47 LightSwitch Promoter Reporter GoClones (RenSP, S710450) and Cypridina TK Control constructs (pTK-Cluc, SN0322S) were obtained from SwitchGear Genomics. 45 ng of the RenSP reporter and 5 ng of the pTK-Cluc reporter construct were transfected into mouse smooth muscle cells using Lipofectamine 3000 Transfection 1 Reagent (Thermo Scientific, Catalogue #L3000-008) and Opti-MEM I Reduced Serum Medium (Thermo Scientific, Catalogue #31985062). […] The cell lysate and supernatant were harvested 24 hours after stimulation/treatment und dual luciferase activity was measured with the LightSwitch Luciferase Assay Kit (Active Motif, Catalogue #32031, NC0999256) and Pierce Cypridina Luciferase Glow Assay Kit (Thermo Scientific, P116170) using an iD3 luminometer (Molecular Devices). Relative luciferase activity (RenSP/Cypridina ratio) was quantified as the percentage change relative to the basal value obtained from control-transfected cells.

[4] = test system: RAW 264.7 macrophages; assay: Apoptosis assay (Caspase-Glo 3/7); assay type: cell-based, mouse; settings: with or without 1 μM staurosporine, 4 hours
Description: The apoptosis assay was performed as previously described (Kojima et al., Nature 536, 86-90, 2016). To evaluate apoptosis, the luminometric Caspase-Glo 3/7 Assay System (Promega, Catalogue #G8091) was performed on cultured murine RAW 264.7 macrophages, according to the manufacturer's protocol. Cells were seeded in 96-well plates at the density of 10,000 cells per well, grown at 37° C. and serum-starved for 24 hours. […] For quantification, an iD3 luminometer (Molecular Devices) was used.

[5] = test system: humans; assay: Retrospective analysis of 18F-FDG-PET/CT scans of patients treated with magrolimab; assay type: in vivo, human; settings: mean±SD, n=9
Description: Study population and design. The 13 participants enrolled in the first-in-human clinical trials of magrolimab at Stanford University were identified for inclusion in this retrospective analysis. These patients had refractory or relapsed B-cell lymphoma and had become refractory to rituximab alone or in combination with chemotherapy prior to enrollment. The protocol was reviewed and approved by the institutional review board at Stanford University (IRB #55497). Participants were treated with magrolimab in combination with background rituximab therapy. […]
^18F-FDG-PET/CT scans and analysis. […] Images were anonymized and analyzed using MIM Vista version 6.9.2 (MIM Software Inc., Cleveland, OH). The analyses were performed as previously described, and vascular uptake was quantified in the carotid arteries to avoid confounding by signal present in the mediastinal lymph nodes. Briefly, the carotid artery bifurcations on both sides were identified and arterial FDG uptake was measured starting 2 cm below the carotid artery bifurcation and continuing superiorly to 2 cm into the internal carotid artery. […] The maximum target-to-background ratio (TBR) was calculated (ratio of the maximum SUV of the artery compared to background activity in the ipsilateral internal jugular vein). […] This was calculated as an average maximum TBR derived from four contiguous axial segments. […]

Molecule: CC(O)(CCOP(=O)(O)O)CC(=O)O (racemic) [DL-mevalonic acid 5-phosphate]
- effect of atorvastatin on NFκB1 p50 nuclear translocation with the addition of mevalonate [1]: eliminated

Molecule: CC(C)c1c(C(=O)Nc2ccccc2)c(-c2ccccc2)c(-c2ccc(F)cc2)n1CC[C@@H](O)C[C@@H](O)CC(=O)O [atorvastatin]
- CD47 RNA level [2]: larger reduction
- CD47 protein level [2]: larger reduction
- tumor necrosis factor-α induced CD47 promoter activity [3]: inhibit
- rate of programmed cell death (apoptosis) [4]: not found

Molecule: magrolimab: humanized anti-CD47 antibody, the first macrophage checkpoint inhibitor
- 18F-FDG uptake measured by maximum SUV ([5]; most diseased segment of the index vessel (carotid) after magrolimab 20 to 45 mg/kg weekly with background rituximab, baseline 2.75±0.58, p=0.01): 2.09±0.53
- 18F-FDG uptake measured by maximum TBR ([5]; most diseased segment of the index vessel (carotid) after magrolimab with background rituximab, baseline 1.56±0.22, p=0.006): 1.28±0.11
